Test results as given in the supplement of paper PMC10307832.

Columns and labels:
Test in all cases: relative viability (nuclei count vs DMSO), 5 days (fraction); higher = more cells survive
Crenolanib + Tozasertib = compound: CC1(COc2ccc3c(c2)ncn3-c2ccc3cccc(N4CCC(N)CC4)c3n2)COC1 [Crenolanib] + Cc1cc(Nc2cc(N3CCN(C)CC3)nc(Sc3ccc(NC(=O)C4CC4)cc3)n2)n[nH]1 [Tozasertib] (partner 0.1 µM)
Procedure, shortened: (§1)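 One day after seeding in 1536-well plates, lung cancer cell lines were dosed by pin tool. Dosing was either single-drug or a fixed anchor-drug dose plus five library-drug doses (not always all listed) in √10 steps. After 5 days, nuclei were stained in one fix-and-stain step and counted on 4× images, and relative viability is the nuclei count of treated wells over that of vehicle wells, given as the median of duplicate plates.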

Crenolanib + AZD7762 = compound: CC1(COc2ccc3c(c2)ncn3-c2ccc3cccc(N4CCC(N)CC4)c3n2)COC1 [Crenolanib] + NC(=O)Nc1cc(-c2cccc(F)c2)sc1C(=O)N[C@H]1CCCNC1 [AZD7762] (partner 0.2 µM)
Procedure, shortened: as §1

Crenolanib + Pemetrexed = compound: CC1(COc2ccc3c(c2)ncn3-c2ccc3cccc(N4CCC(N)CC4)c3n2)COC1 [Crenolanib] + Nc1nc2[nH]cc(CCc3ccc(C(=O)N[C@@H](CCC(=O)O)C(=O)O)cc3)c2c(=O)[nH]1 [Pemetrexed] (partner 0.2 µM)
Procedure, shortened: as §1

Tivantinib + Phenformin = compound: O=C1NC(=O)[C@@H](c2cn3c4c(cccc24)CCC3)[C@@H]1c1c[nH]c2ccccc12 [Tivantinib] + N=C(N)NC(=N)NCCc1ccccc1 [Phenformin] (partner 250 µM)
Procedure, shortened: as §1

Cell Line | relative viability (Crenolanib + Tozasertib; first compound 0.01 µM) | relative viability (Crenolanib + Tozasertib; first compound 0.03162 µM) | relative viability (Crenolanib + Tozasertib; first compound 0.1 µM) | relative viability (Crenolanib + Tozasertib; first compound 0.3162 µM) | relative viability (Crenolanib + Tozasertib; first compound 1 µM) | relative viability (Crenolanib + AZD7762; first compound 0.01 µM) | relative viability (Crenolanib + AZD7762; first compound 0.03162 µM) | relative viability (Crenolanib + AZD7762; first compound 0.1 µM) | relative viability (Crenolanib + AZD7762; first compound 0.3162 µM) | relative viability (Crenolanib + AZD7762; first compound 1 µM) | relative viability (Crenolanib + Pemetrexed; first compound 0.01 µM) | relative viability (Crenolanib + Pemetrexed; first compound 0.03162 µM) | relative viability (Crenolanib + Pemetrexed; first compound 0.1 µM) | relative viability (Crenolanib + Pemetrexed; first compound 0.3162 µM) | relative viability (Crenolanib + Pemetrexed; first compound 1 µM) | relative viability (Tivantinib + Phenformin; first compound 0.01 µM) | relative viability (Tivantinib + Phenformin; first compound 0.03162 µM) | relative viability (Tivantinib + Phenformin; first compound 0.1 µM) | relative viability (Tivantinib + Phenformin; first compound 0.3162 µM)
201T | 1.04 | 1.02 | 0.856 | 0.733 | 0.945 | 0.686 | 0.633 | 0.605 | 0.739 | 0.694 | 0.324 | 0.323 | 0.34 | 0.322 | 0.338 | 0.421 | 0.458 | 0.415 | 0.451
A549 |  |  |  |  |  |  |  |  |  |  |  |  |  |  |  | 0.158 | 0.169 | 0.146 | 0.263
A-427 | 0.209 | 0.237 | 0.224 | 0.181 | 0.225 | 0.778 |  | 0.726 | 0.802 | 0.853 | 1.01 |  | 0.99 | 0.989 | 0.834 | 0.378 | 0.391 | 0.325 | 0.304
ABC-1 | 0.177 | 0.202 | 0.179 | 0.162 | 0.133 |  | 0.776 | 0.961 | 1.01 | 0.902 |  |  |  |  |  | 0.23 | 0.246 | 0.201 | 0.228
BEN | 0.524 | 0.476 | 0.474 | 0.484 | 0.464 | 0.684 | 0.612 | 0.704 | 0.735 | 0.71 | 0.784 | 0.637 | 0.677 | 0.752 | 0.774 | 0.29 | 0.258 | 0.254 | 0.26
CAL-12T | 0.314 | 0.349 | 0.294 | 0.343 | 0.36 | 0.778 | 0.553 | 0.641 | 0.634 | 0.799 | 1.28 | 1.27 | 1.22 | 1.34 | 1.31 | 0.639 | 0.529 | 0.582 | 0.259
COR-L23 | 0.214 | 0.22 | 0.201 | 0.206 | 0.185 |  |  |  |  |  | 0.185 | 0.189 | 0.201 | 0.199 | 0.202 | 0.453 | 0.416 | 0.415 | 0.508
COR-L 105 | 0.379 | 0.426 | 0.365 | 0.38 | 0.358 |  |  |  |  |  | 1.25 | 1.09 | 1.09 | 1.14 | 1.1 | 0.523 | 0.366 | 0.401 | 0.369
ChaGo-K-1 | 0.26 | 0.264 | 0.234 | 0.209 | 0.22 | 0.876 | 0.863 | 0.866 | 0.933 | 0.891 | 0.26 | 0.256 | 0.255 | 0.253 | 0.27 | 0.586 | 0.442 | 0.483 | 0.542
EKVX | 0.465 | 0.346 | 0.428 | 0.364 | 0.359 | 0.733 | 0.779 | 0.731 | 0.841 | 0.761 | 0.413 | 0.423 | 0.401 | 0.379 | 0.387 | 0.218 | 0.256 | 0.243 | 
EMC-BAC-2 | 0.312 | 0.251 | 0.322 | 0.239 | 0.309 | 1.1 |  | 1.1 | 1.25 | 1.07 | 0.437 |  | 0.456 | 0.449 | 0.436 | 0.566 | 0.453 | 0.528 | 0.528
EPLC-272H | 0.385 | 0.352 | 0.257 | 0.286 | 0.377 | 0.207 | 0.238 | 0.376 | 0.289 | 0.251 | 0.322 | 0.342 | 0.346 | 0.336 | 0.353 | 0.248 | 0.294 | 0.296 | 0.0595
H3255 | 0.672 | 0.609 | 0.579 | 0.671 | 0.611 | 1.05 | 0.761 | 0.907 | 0.835 | 0.797 | 0.597 | 0.563 | 0.544 | 0.553 | 0.589 | 0.315 | 0.357 | 0.355 | 
HARA | 0.138 | 0.131 | 0.145 | 0.116 | 0.121 | 0.399 | 0.391 | 0.588 | 0.248 | 0.509 | 0.3 | 0.231 | 0.224 | 0.225 | 0.236 | 0.418 | 0.417 | 0.416 | 0.373
HCC-15 | 0.397 | 0.313 | 0.444 | 0.378 | 0.427 | 1.07 | 1.15 | 0.961 | 0.607 | 1.17 | 0.23 | 0.215 | 0.227 | 0.228 | 0.213 | 0.476 | 0.411 | 0.478 | 0.479
HCC-44 | 1.07 | 0.781 | 0.89 | 0.578 | 0.57 | 1.05 | 0.955 | 1.01 | 1.07 | 0.973 | 0.639 | 0.662 | 0.707 | 0.632 | 0.642 | 0.325 | 0.171 | 0.225 | 0.215
